{"source": "patent US8394854B2", "about": "“Use of L-carnitine for the treatment of cardiovascular diseases” (Sigma-Tau Industrie Farmaceutiche Riunite S.p.A., priority 2004, dated 2013)", "key": {"[1]": {"system": "patients presenting infarction symptoms", "conditions": "2 g/day; 6 in the control group; cited from earlier work"}, "[2]": {"system": "patients with acute myocardial infarction", "assay": "Multicentre randomized, double-blind, placebo-controlled, parallel-group clinical trial of L-carnitine", "assay_type": "in vivo, human", "conditions": "for RR (Relative Risk) of death at 1 mo. / RR (Relative Risk) of death at 2 mos. / RR (Relative Risk) of death at 6 mos. / RR (Relative Risk) of death at 12 mos. / RR (Relative Risk) of death at 3 days / RR (Relative Risk) of death at 5 days / RR (Relative Risk) of death at 7 days: vs placebo", "description": "A clinical trial was conducted aimed at evaluating the effect of the administration of L-carnitine on short-, medium- and long-term incidence and mortality in patients with acute myocardial infarction. The trial design was that of a multicentre randomized, double-blind, placebo-controlled, parallel-group trial.\nA total of 2,296 patients of male and female sex were recruited, aged below 80 years, subdivided into groups. The study compound, L-carnitine, was administered at a dose of 9 g/day i.v. for the first 5 days and 4 g/day by mouth from day 6 to day 180.\nIn particular, in one group of patients the L-carnitine was administered intravenously dissolved in sterile saline solution, while in another group of patients it was administered dissolved in normal 5% glucose solution used in hospital departments.\nThe control group received the standard therapy used for the treatment of infarct, without L-carnitine.\nConcomitant therapies were administered according to the procedures adopted in local clinical practice.\nThe efficacy parameters evaluated were reduction of mortality, reduction of the number of days spent in intensive care, and reduction of the number of episodes of post-infarction heart failure.\n• Typical chest pain lasting >30 minutes which is not relieved by oral or i.v. administration of nitrates; • ECG with ST-segment elevation 0.2 mV in D, and in lead aVL and/or in at least two contiguous precordial leads; • Time interval elapsing between onset of symptoms and study randomisation <12 hours; • Age <80 years; • Written informed consent. Exclusion Criteria • Pregnancy or breast-feeding; • Haemodynamically significant valvulopathy; • Hypertrophic or dilatory cardiomyopathy; • Congenital cardiopathy; • Clinically severe liver and kidney disease; • Alcohol abuse; • Other diseases associated with a poor life expectancy; • Conditions making poor compliance with treatment and/or periodic examinations likely; • Inclusion in another trial."}, "infarction patients [3]": {"system": "infarction patients", "conditions": "L-carnitine administered within 24 hours of the infarction; 14 in the control group; cited from earlier work"}, "[4]": {"system": "patients with acute myocardial infarction", "conditions": "3 grams every 8 hours (9 grams a day) intravenously for 48 hours; control saline solution; cited from earlier work"}, "[5]": {"system": "experimental cardiac ischaemia model", "conditions": "dogs; cited from earlier work"}, "infarction patients [6]": {"system": "infarction patients", "conditions": "two deaths also in the placebo group; cited from earlier work"}, "[7]": {"system": "patients with signs of infarction", "conditions": "40 mg/kg/day (2.8 g/day), cited from earlier work"}, "[8]": {"conditions": "all patients, L-carnitine in saline or glucose solution"}, "[9]": {"conditions": "group treated with L-carnitine dissolved in glucose solution"}, "[10]": {"conditions": "L-carnitine dissolved in glucose solution"}, "[11]": {"conditions": "all patients, saline or glucose solution"}}, "data": [{"compound": "C[N+](C)(C)C[C@H](O)CC(=O)[O-]", "note": "[L-carnitine]", "values": [{"measurement": "number of deaths at 28 days after the start of treatment", "setting": "[1]", "result": 4}, {"measurement": "NUMBER OF DEATHS AT: 1 mo.", "setting": "[2]; [8]", "result": 45}, {"measurement": "NUMBER OF DEATHS AT: 1 mo.", "setting": "[2]; [9]", "result": 22}, {"measurement": "RR (Relative Risk) of death at 1 mo.", "setting": "[2]; [10]", "result": 0.79}, {"measurement": "RR (Relative Risk) of death at 1 mo.", "setting": "[2]; [11]", "result": 0.78}, {"measurement": "NUMBER OF DEATHS AT: 2 mos.", "setting": "[2]; [8]", "result": 53}, {"measurement": "NUMBER OF DEATHS AT: 2 mos.", "setting": "[2]; [9]", "result": 26}, {"measurement": "RR (Relative Risk) of death at 2 mos.", "setting": "[2]; [10]", "result": 0.80}, {"measurement": "RR (Relative Risk) of death at 2 mos.", "setting": "[2]; [11]", "result": 0.81}, {"measurement": "NUMBER OF DEATHS AT: 6 mos.", "setting": "[2]; [8]", "result": 64}, {"measurement": "NUMBER OF DEATHS AT: 6 mos.", "setting": "[2]; [9]", "result": 32}, {"measurement": "RR (Relative Risk) of death at 6 mos.", "setting": "[2]; [10]", "result": 0.87}, {"measurement": "RR (Relative Risk) of death at 6 mos.", "setting": "[2]; [11]", "result": 0.86}, {"measurement": "NUMBER OF DEATHS AT: 12 mos.", "setting": "[2]; [8]", "result": 67}, {"measurement": "NUMBER OF DEATHS AT: 12 mos.", "setting": "[2]; [9]", "result": 33}, {"measurement": "RR (Relative Risk) of death at 12 mos.", "setting": "[2]; [10]", "result": 0.88}, {"measurement": "RR (Relative Risk) of death at 12 mos.", "setting": "[2]; [11]", "result": 0.89}, {"measurement": "NUMBER OF DEATHS AT: 3 days", "setting": "[2]; all patients, L-carnitine in saline or glucose solution, 9 g/day i.v. 5 days then 4 g/day oral", "result": 23}, {"measurement": "NUMBER OF DEATHS AT: 3 days", "setting": "[2]; [9]", "result": 11}, {"measurement": "RR (Relative Risk) of death at 3 days", "setting": "[2]; [10]", "result": 0.67}, {"measurement": "RR (Relative Risk) of death at 3 days", "setting": "[2]; [11]", "result": 0.68}, {"measurement": "NUMBER OF DEATHS AT: 5 days", "setting": "[2]; [8]", "result": 27}, {"measurement": "NUMBER OF DEATHS AT: 5 days", "setting": "[2]; [9]", "result": 13}, {"measurement": "RR (Relative Risk) of death at 5 days", "setting": "[2]; [10]", "result": 0.64}, {"measurement": "RR (Relative Risk) of death at 5 days", "setting": "[2]; [11]", "result": 0.63}, {"measurement": "NUMBER OF DEATHS AT: 7 days", "setting": "[2]; [8]", "result": 31}, {"measurement": "NUMBER OF DEATHS AT: 7 days", "setting": "[2]; [9]", "result": 15}, {"measurement": "RR (Relative Risk) of death at 7 days", "setting": "[2]; [10]", "result": 0.70}, {"measurement": "RR (Relative Risk) of death at 7 days", "setting": "[2]; [11]", "result": 0.69}, {"measurement": "patients in the treated group who died over the entire hospitalisation period", "setting": "infarction patients [3]", "result": 11}, {"measurement": "mortality at 7 days after the start of treatment, control group vs treated group", "setting": "[4]", "result": "no significant difference"}, {"measurement": "enhancing cardiac lipid metabolism", "setting": "[5]", "result": "active"}, {"measurement": "deaths in the group treated with L-carnitine", "setting": "infarction patients [6]", "result": "two"}, {"measurement": "difference between patients treated within 4 hours of onset of symptoms of infarction and patients treated 4 hours after onset", "setting": "[7]", "result": "no statistically significant difference"}, {"measurement": "number of deaths in the treated group", "setting": "[7]; one in the control group", "result": "none"}]}]}
